Consider two molecules from US20230263168A1, “COMBINED FUNGICIDAL PREPARATIONS AND METHODS FOR USING THEREOF” (SAVE FOODS LTD., priority 2020, published 2023).

This experiment relates to Penecillium Digitatum. In words: Example 3, Trials 1-3: decay of inoculated clementine stored at room temp. In kind it is in vivo, Penecillium Digitatum on Clementine. On the procedure: Fruits: Clementine; Inoculum: Penecillium Digitatum 10^5; Inoculation: 24 hours prior to treatment.
Storage: Cartons of fruit from all the treatments were stored for several days at room temp to monitor fruit spoilage and treatment efficacy.

In the case of `CC(=O)OO` [PAA, peracetic acid], the “% decay (waste) 9 days at room temp” value (Trial 3, PAA 150 ppm only) was 36%.
`C=CCOC(Cn1ccnc1)c1ccc(Cl)cc1Cl` (stereo not drawn) [IMZ, imazalil]: under “Trial 1, IMZ 250 ppm, PAA 0, ACIDS 0”, the “% decay (waste) 12 days at room temp” value was 55%. Moreover, the “% decay (waste) 9 days at room temp” value is, setting by setting: (Trial 2, IMZ 250 ppm, PAA 0, ACIDS 0) 40%; (Trial 2, IMZ 500 ppm, PAA 0, ACIDS 0) 19%; (Trial 3, IMZ 250 ppm, PAA 0, ACIDS 0) 35%; (Trial 3, IMZ 500 ppm, PAA 0, ACIDS 0) 24%.
